Experimental data reported in patent US8729107B2, “Pyridines for treating injured mammalian nerve tissue” (Purdue Research Foundation, priority 2002, dated 2014).
Read-outs that look alike come from different tables or passages of the source.

Tests used:
[1] = tested on: fast potassium channels (IA) in guinea pig DRG cells; test: Whole cell patch-clamp recording of voltage-gated potassium currents (Itotal, fast component IA); format: cell-based; conditions: for effect on fast potassium current (initial peak of Itotal): 5 mM in bath solution; for peak (fast activated) potassium current amplitude after treatment: 5 mM in bath, command potential +30 mV
[2] = tested on: delayed rectifier current Idr in guinea pig DRG cells; test: Whole cell patch-clamp recording of isolated delayed rectifier current; format: cell-based; conditions: depolarization holding potential; data not shown
[3] = tested on: guinea pigs with compression injury to the mid-thoracic spinal cord; format: in vivo; conditions: for failures to respond: by 4 hours after gavage; for effective dosage producing improvement in the electrophysiological record: gavage; for Mean recovered EP (area beneath recovered EP normalized to pre-injury): gavage at 1 week post injury, Table 1; for tolerability of gavage: oral insertion in sedated guinea pigs
Text: “Somatosensory evoked potential testing (SSEP)” is a means of measuring ascending nerve impulse “traffic” in a “whole” animal. […] These volleys of evoked potentials are initiated by electrical stimulation of the tibial nerve of the hind leg of an animal, which induces ascending sensory volleys of nociceptive impulses to the contralateral sensory cortex of the brain in the intact animal. A severe spinal cord injury eliminates the ability of evoked potentials to cross the lesion and thus SSEPs are not recorded at the brain after lesioning. Quantitative evaluation of the recovery of SSEP conduction through the whole animal provides a more relevant indicator of the feasibility of these compounds to be useful in reversing behavioral loss after specific, localized, and standardized CNS injury. To eliminate the possibility that the failure to record SSEPs could be due to other factors, a control recording is carried out using the median nerve of the foreleg. Since this neural circuit is completely intact (that is—“above” the level of the spinal injury) normal SSEPs must be obtained after such “control” stimulation. FIG. 2 is a diagram of this testing protocol and provides examples of normal recordings in intact animals, the elimination of sensory impulses after a mid-thoracic spinal cord injury, and explains these issues in detail, as well as, emphasizing the importance of a median nerve control procedure.
During live animal testing using guinea pigs, novel pyridine derivatives of the instant invention were administered through a gastric tube to large adult guinea pigs which had previously received a standardized compression injury to their mid-thoracic spinal cords. The ability of these compounds to restore conduction in this second technique was determined by a quantitative evaluation of SSEPs. The following protocols and routes of administration were employed.
Prior to spinal cord injury, fully adult guinea pigs (Hardy strain, around 400 g) were lightly sedated with an intramuscular injection of Ketamine/Rompum and rendered immobile during the placement of stimulation and recording electrodes as illustrated in FIG. 2. A series of SSEP records were then taken subsequent to both tibial and median nerve stimulation in this normal animal. It should be noted here that all surgical procedures and physiological recordings were carried out on anesthetized animals. All animal studies were carried out under protocols approved by the University Animal Care and Use Committee, under strict adherence to University, State, and Federal guidelines for the use of animals in research.
Subsequently, a dorsal laminectomy surgical procedure was carried out exposing the dorsal (posterior) region of the mid-thoracic spinal cord within the vertebral column, the tough covering of the spinal cord (the dura) incised and removed, and the cord crushed by a standardized technique (constant displacement compression. Blight A R (1991a), Morphometric analysis of a model of spinal cord injury in guinea pigs, with behavioral evidence of delayed secondary pathology, J Neurol Sci 103:156-171; Borgens R B, Shi R, Bohnert D (2002), Behavioral recovery from spinal cord injury following delayed application of polyethylene glycol, J Exp Biol 205:1-12, both incorporated herein by reference.
[…] However, periodically physiological records were taken to monitor their status—and a final record at around 2 months post injury to confirm the chronic loss of ascending SSEP conduction through the mid-thoracic lesion.
After 8 weeks had elapsed and a “pre-drug application” electrical record obtained, the guinea pigs were lightly sedated and a test compound was administered directly into the stomach by a gastric tube (compounds were undissolved during introduction to the stomach, however, the gastric tube and any remnants of the compounds were flushed into the stomach by secondary introduction of less than 1 ml of distilled water). […]

[4] = tested on: injured guinea pig spinal cord white matter; conditions: for concentration producing recovery of CAP conduction (effective/working concentration): drug added to bathing medium of central chamber; for increase in the amplitude of the recovered CAP: pre-drug recovered CAP normalized to 100%; for CAP amplitude after removal of the drug and wash: FIG. 8 electrical records, after washout; for CAP relative to pre-drug level: at the concentrations studied
[5] = tested on: paralyzed persons with spinal cord injury; conditions: cited from earlier work

For Nc1ccncc1 [4-AP, 4-aminopyridine, reference compound], which “effect on fast potassium current (initial peak of Itotal)” value [1] is on record?
The value was “largely blocked”.

What about the “peak (fast activated) potassium current amplitude after treatment” value [1] of the same molecule?
The value was 2,574.91±446.8 pA.

And the “inhibition of Idr” value [2]?
Its value is “did not significantly inhibit”.

And the failures to respond [3]?
Its failures to respond is “Two of the ten animals failed to respond”.

What about the “effective dosage producing improvement in the electrophysiological record” value [3] of the same molecule?
Its value is 0.47±0.04 mg/kg.

What about the “Mean recovered EP (area beneath recovered EP normalized to pre-injury)” value [3] of the same molecule?
The value was 40.0.

What about the tolerability of gavage [3] of the same molecule?
Its tolerability of gavage is “uneventful”.

What about the “concentration producing recovery of CAP conduction (effective/working concentration)” value [4] of the same molecule?
The value was 100 µM.

What about the “side effects at the concentrations required” value ([5]; human patients) of the same molecule?
Its value is “numerous unwanted side effects”.

What about the “share of treated population with clinically meaningful recoveries of function” value ([5]; paralyzed persons) of the same molecule?
Its value is “about 30%”.

Which “effect on fast potassium current (initial peak of Itotal)” value [1] does the source give for Nc1ccncc1CO [4-AP-3-MeOH, 4-aminopyridine-3-methanol] here?
The value was “inhibit the fast potassium currents”.

What about the “peak (fast activated) potassium current amplitude after treatment” value [1] of the same molecule?
The value was 2,434.20±543.4 pA.

And the “effect on IA over step voltage commands” value ([1]; step voltage commands from −50 to 40 mV)?
Its value is “suppresses IA”.

What about the “inhibition of Idr” value [2] of the same molecule?
The value was “did not significantly inhibit”.

And the “increase of CAP conduction (not significant)” value ([4]; 0.01 μM, stretch-injured cord, mean±SE, n=5)?
Its value is 6.44±3.8%.

And the “increase of CAP conduction” value ([4]; 0.1 μM, stretch-injured cord, mean±SE, n=7)?
Its value is 12.73±3.2%.

What about the “increase of CAP conduction” value ([4]; 1 μM, stretch-injured cord, mean±SE, n=6) of the same molecule?
Its value is 11.27±4.2%.

And the “increase of CAP conduction” value ([4]; 10 μM, stretch-injured cord, mean±SE, n=11)?
The value was 13.35±5.9%.

And the “effect on CAP activation threshold” value ([4]; 100 μM, stimulus intensities 1.85 to 6.5 V)?
The value was “does not have a significant effect”.

What about the “CAP conduction across stimulus intensities” value ([4]; 100 μM, stimulus intensities 1.85 to 6.5 V, data not shown) of the same molecule?
The value was “increased CAP conduction at all stimuli intensity levels”.

What about the “increase of CAP conduction” value ([4]; 100 μM, stretch-injured cord, mean±SE, n=6) of the same molecule?
The value was 21.51±4.5%.

What about the “increase of CAP conduction (not significant)” value ([4]; 1 mM, stretch-injured cord, mean±SE, n=5) of the same molecule?
Its value is 6.72±8.3%.

What about the “suppression of CAP conduction” value ([4]; 10 mM, stretch-injured cord, mean±SE, n=5) of the same molecule?
Its value is 18.48±8.1%.

And the “effect on axonal response to dual or multiple stimuli” value ([4]; injured spinal cord tissue)?
Its value is “does not have a significant effect”.

Which results are given for CCOC(=O)Nc1ccncc1 [ethyl carbamate (2), N-(4-Pyridyl)Ethyl Carbamate]?
recovery of EP compared to 4-AP ([3]; 1 week post injury): did not meet significance; failures to respond [3]: no failures to respond; Mean recovered EP (area beneath recovered EP normalized to pre-injury) [3]: 41.5; tolerability of gavage [3]: uneventful; indication of toxicity [4]: without any indication of toxicity; enhancement of CAP conduction ([4]; 100 uM): enhanced CAP conduction significantly; recovery of CAP relative to 4-AP ([4]; 100 uM): slightly lower recovery of CAP than 4-AP; increase in the amplitude of the recovered CAP ([4]; 100 uM): 18.6±8.7%; CAP amplitude after removal of the drug and wash [4]: fallen back to pre-drug levels; increase in the amplitude of the CAP in example electrical record ([4]; FIG. 8 panel A, about 1/2 hour after addition): ~20%; CAP relative to pre-drug level [4]: increase in CAP above the pre-drug level; concentration producing recovery of CAP conduction (effective/working concentration) [4]: approximately 100 uM; concentration producing recovery of CAP conduction (effective/working concentration) ([4]; listed as carbamate (2)): 100 µM

What does the source list for COC(=O)Nc1ccncc1 [methyl carbamate (3), N-(4-Pyridyl)Methyl Carbamate]?
cortical potential (P1) after administration ([3]; FIG. 3, 1 hour after gastric tube administration, 1 week post injury): nearly normal cortical potential; effective dosage producing improvement in the electrophysiological record [3]: 0.37±0.2 mg/kg; Mean recovered EP (area beneath recovered EP normalized to pre-injury) [3]: 78.0; tolerability of gavage [3]: uneventful; enhancement of CAP conduction ([4]; 100 uM): enhanced CAP conduction significantly; increase in the amplitude of the recovered CAP ([4]; 100 uM): 30.6±11.7%; CAP amplitude after removal of the drug and wash [4]: approximate pre-drug levels; concentration producing recovery of CAP conduction (effective/working concentration) ([4]; listed as Methyl carbamate (3)): approximately 100 uM; concentration producing recovery of CAP conduction (effective/working concentration) ([4]; listed as carbamate (3)): 100 µM

Which “recovery of EP compared to 4-AP” value ([3]; 1 week post injury) does the source give for CC(C)(C)OC(=O)Nc1ccncc1 [t-butyl carbamate (1), N-(4-Pyridyl) t-Butyl Carbamate] here?
The value was “significantly enhanced”.

And the failures to respond [3]?
The failures to respond was “no failures to respond”.

And the tolerability of gavage [3]?
The tolerability of gavage was “not tolerated”.

And the indication of toxicity [4]?
The indication of toxicity was “without any indication of toxicity”.

And the “enhancement of CAP conduction” value ([4]; 1 uM)?
Its value is “enhance CAP conduction significantly”.

What about the “CAP relative to pre-drug level” value [4] of the same molecule?
Its value is “increase in CAP above the pre-drug level”.

What about the “concentration producing recovery of CAP conduction (effective/working concentration)” value [4] of the same molecule?
Its value is 1 µM.

What about the “increase in recovery CAP amplitude” value ([4]; printed 'at uM', n=5, relative to pre-drug CAP) of the same molecule?
The value was 15.4±3.4%.
